{
  "source": "patent US7396682B2",
  "about": "“Method for cell adhesion and wound healing” (Regen Biotech, Inc., priority 2000, dated 2008)",
  "key": {"HCE cells": {"test_system": "HCE cells", "test": "Inhibition assay of HCE cell adhesion using matrix peptides and reagents", "format": "cell-based, human", "conditions": "HCE cells preincubated 30 min with reagent", "method": "In order to identify cell surface receptors involved in the cell adhesion activity of βig-h3 protein, an inhibition assay was performed using various reagents.\nInitially, plastic culture dishes were coated with 10 μg/ml fibronectin, βigh3-WT or βigh3-ΔRGD. HCE cells were preincubated for 30 min in media containing 5 mM EDTA, 100 μg/ml βigh3-WT, 100 μg/ml βigh3-ΔRGD, 1 mM RGD, 1 mM RGE or 100 μg/ml fibronectin, or none of them, and then assayed for cell adhesion as in Example 1."}, "K562 cells": {"test_system": "K562 cells", "test": "K562 cell adhesion to coated proteins (hexosaminidase analysis)", "format": "cell-based", "conditions": "1 hour", "method": "For another control experiment, K562 cells, known to express α5, but not α3 integrin, were used. K562 cells were inoculated onto plates coated with βigh3-WT, fibronectin, laminin, or type I collagen and incubated for 1 hour, followed by the hexosaminidase analysis."}, "[1]": {"test_system": "dermal whole layer wounds on the backs of rats", "test": "Wound healing with ointment bases on dermal whole layer wounds (2 cm) of rats", "format": "in vivo, rat", "design": "key to Formation grade of collagenous fibers at wound: 0: negative; 1+: insignificant; 2+: scatteringly formed; 3+: very dense; key to Re-ephithelialization of Wound (grade): 0: zero was set for the formation of no epithelial layers; 1+ for initiation of epithelialization; 2+ for incomplete epithelial layer structure; 3+ for complete epithelial layer structure", "conditions": "for wound area: ointment 100 μg/ml, 1 g per day, mean", "method": "To compare wound healing activity between the recombinant βig-h3 protein His-β-b, which contains all of the four fas-1 domains, like native βig-h3 protein, and the recombinant βig-h3 protein βigh3-D-IV, which contains the 4th domain alone, ointment bases comprising the recombinant proteins were tested as follows.\nFour dermal whole layer wounds, each 2 cm in diameter, were made on the backs of rats and divided into test groups 1-A, 1-B, 1-C and 1-D according to the ointment applied thereto.\n1-A: coated at a dose of 1 gm per day with an ointment base combined with no materials.\n1-B: coated at a dose of 1 gm per day with an ointment in which fibronectin was combined at a concentration of 100 μg/ml with a base.\n1-C: coated at a dose of 1 g per day with an ointment in which Hisβ-b protein was combined at a concentration of 100 μg/ml with a base.\n1-D: coated at a dose of 1 g per day with an ointment in which βigh3-D-IV protein was combined at a concentration of 100 μg/ml with a base.\nThe backs of etherized rats were shaved, followed by sterilizing the shaved region with betadin solution. In test group 1, the back of each rat was cut by use of a No. 15 surgical blade to form four circular wounds with a diameter of 2 cm penetrating the whole dermal layers. Ointments for test groups 1-A, 1-B, 1-C and 1-D were applied at an amount of about 1 g to the wounds which were then covered with a synthetic dressing (Tegaderm® 3M) and lightly bandaged. Application of ointments was performed once every day.\nWith a base of an aqueous material (SamA base), each of the ointments contained, per 1 g, spermaceti 38 mg, stearyl alcohol 116 mg, polyethylglycol 38 mg, conc. glycerin 192 mg, ethanol 23 mg, […], ethyl paraoxybenzoate 0.87 mg, butyl paraoxybenzoate 0.12 mg, and purified water.\nFirst, morphologies of wounds were observed. The same scale was positioned near each wound and pictures were taken at the same distance from each wound. Pictures were scanned in a computer and used to measure areas of the wounds with the aid of NIH image analysis system (Bio-Optics). To take the pictures, the muscle was completely relaxed by etherizing the rats. Measurements were performed once every other day until the 22nd day. For comparing test groups, the measured values were analyzed according to ANOVA test and Scheffer's test.\nHistological analysis was conducted under an optical microscope. Biopsies of wound sites were taken at days 3, 7, 10, 14 and 20, and fixed in 10% formalin and solidified with paraffin. 6 μm slices of the samples were dyed with hematoxylin-eosin (H&E) and Masson's trichrome before observation under a microscope. Wound healing effects according to time of each test material were evaluated through re-epithelialization and formation of collagenous fibers. In the case of re-epithelialization, epithelial formation was semi-quantified in such a way that zero was set for the formation of no epithelial layers, 1+ for initiation of epithelialization, 2+ for incomplete epithelial layer structure, and 3+ for complete epithelial layer structure. Regarding comparison among test groups and differences according to time within each group, measured values were statistically analyzed using ANOVA test and Scheffe's test. As for collagenous fiber formation, it was graded as 1+ for insignificant formation of collagenous fibers as observed with trichrome dye, 2+ for scatteringly spaced collagenous fibers, and 3+ for dense collagenous fibers."}, "[2]": {"test_system": "circular dermal whole layer wounds on the back of each rat", "test": "Wound healing with chitosan base composites on dermal whole layer wounds (7 mm) of rats", "format": "in vivo", "conditions": "chitosan base with 500 μg/ml protein, Mean ± S.D", "method": "Adult Spraque-Dawley lineage rats with a body weight of 250-300 gm were raised with standard feedstuff at a constant temperature and humidity.\nIn test group 2, four circular dermal whole layer wounds were made on the back of each rat and coated with chitosan bases combined with materials of interest:\n2-A: wound coated with chitosan base only\n2-B: wound coated with chitosan base in combination with 500 μg/ml of fibronectin\n2-E: wound coated with chitosan base in combination with 500 μg/ml of βig-h3 D-IV 3X protein\n2-F: wound coated with chitosan base in combination with 500 μg/ml of βig-h3 D-IV 4X protein\nThe composites based on chitosan were prepared as follows. 1 g of water soluble chitosan (poly(1-4) 2-amino-2-deoxy-β-D-glucan) with a molecular weight of 600,000 Da was dissolved in 100 ml of sterile distilled water and the resulting 1% solution was dispensed in aliquot of 2 ml to 12-well plate (Corning, USA), followed by the addition of 100 μg of gentamycin per well. Fibronectin, βigh3-D-IV 3X, and βigh3-D-IV 4X were individually added to a concentration of 500 μg/ml and frozen at −70° C., followed by freeze-drying in a freeze drier (Ilshin) for 12 hours to give disc-shaped composites.\nThe backs of etherized rats were shaved, followed by sterilizing the shaved region with betadin solution. Penetrating the whole dermal layers, four circular wounds with a diameter of 7 mm were formed on the back of each rat. The wounds were covered with composites used for test groups 2-A, 2-B, 2-E and 2-F, respectively, and then with Tegaderm® (3M) and lightly bandaged. The composites were changed with fresh ones every three days.\nWound healing effects were evaluated by determining appearances of the wounds as in Example 4-2."}},
  "data": [
    {"substance": "Fibronectin: positive control; purified human plasma fibronectin in cell assays, purified from citrated rat plasma for wound tests", "values": [
      {"measurement": "inhibition of cell adhesion to fibronectin", "setting": "HCE cells; dishes coated with 10 μg/ml fibronectin", "result": "significantly inhibited"},
      {"measurement": "inhibition of cell adhesion to βig-h3", "setting": "HCE cells; dishes coated with 10 μg/ml βig-h3", "result": "partially inhibited"},
      {"measurement": "adhesion of K562 cells to coated protein", "setting": "K562 cells", "result": "adhered"},
      {"measurement": "wound area", "setting": "[1]; Day 0", "result": 3.17},
      {"measurement": "wound area", "setting": "[1]; Day 2", "result": 2.38, "unit": "cm²"},
      {"measurement": "Formation grade of collagenous fibers at wound", "setting": "[1]; Day 3", "result": "1+"},
      {"measurement": "Re-ephithelialization of Wound (grade)", "setting": "[1]; Day 3", "result": 0},
      {"measurement": "wound area", "setting": "[1]; Day 4", "result": 2.01},
      {"measurement": "wound area", "setting": "[1]; Day 6", "result": 1.83},
      {"measurement": "Formation grade of collagenous fibers at wound", "setting": "[1]; Day 7", "result": "2+"},
      {"measurement": "Re-ephithelialization of Wound (grade)", "setting": "[1]; Day 7", "result": "1+"},
      {"measurement": "wound area", "setting": "[1]; Day 8", "result": 1.39, "unit": "cm²"},
      {"measurement": "Formation grade of collagenous fibers at wound", "setting": "[1]; Day 10", "result": "2+"},
      {"measurement": "Re-ephithelialization of Wound (grade)", "setting": "[1]; Day 10", "result": "1+"},
      {"measurement": "wound area", "setting": "[1]; Day 10", "result": 1.26, "unit": "cm²"},
      {"measurement": "wound area", "setting": "[1]; Day 12", "result": 0.54},
      {"measurement": "Formation grade of collagenous fibers at wound", "setting": "[1]; Day 14", "result": "3+"},
      {"measurement": "Re-ephithelialization of Wound (grade)", "setting": "[1]; Day 14", "result": "2+"},
      {"measurement": "wound area", "setting": "[1]; Day 14", "result": 0.39},
      {"measurement": "wound area", "setting": "[1]; Day 16", "result": 0.25},
      {"measurement": "wound area", "setting": "[1]; Day 18", "result": 0.16},
      {"measurement": "Formation grade of collagenous fibers at wound", "setting": "[1]; Day 20", "result": "3+"},
      {"measurement": "Re-ephithelialization of Wound (grade)", "setting": "[1]; Day 20", "result": "3+"},
      {"measurement": "wound area", "setting": "[1]; Day 20", "result": 0.12},
      {"measurement": "wound area", "setting": "[1]; Day 22", "result": 0.06},
      {"measurement": "reduction in wound area compared with ointment base alone", "setting": "[1]; ointment application, p<0.05 versus group I-A", "result": "more quickly reduced"},
      {"measurement": "completion of re-epithelialization", "setting": "[1]; optical microscope", "result": 20, "unit": "days"},
      {"measurement": "Remaining wound area", "setting": "[2]; Day 0", "result": "49.2 ± 0.5", "unit": "mm^2"},
      {"measurement": "Remaining wound area", "setting": "[2]; Day 3", "result": "24.1 ± 0.6^b mm^2"},
      {"measurement": "Remaining wound area", "setting": "[2]; Day 6", "result": "12.9 ± 0.6^b mm^2"},
      {"measurement": "Remaining wound area", "setting": "[2]; Day 9", "result": "9.7 ± 0.8^b mm^2"},
      {"measurement": "Remaining wound area", "setting": "[2]; Day 12", "result": "3.2 ± 0.4^b mm^2"},
      {"measurement": "Remaining wound area", "setting": "[2]; Day 15", "result": "0.8 ± 0.2^b mm^2"}
    ]}
  ]
}
